Measurements as given in the supplement of paper PMC10627819.

How the values were obtained:
B. subtilis 168 [1] = assay: fitness (endpoint OD595 vs no drug) (fraction); higher = more growth
Outline: (§1)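 Bacterial fitness was scored as optical density at the stationary-phase transition relative to the robust mean of no-drug control wells. Scores are capped at 1. The growth data were OD595 readings every 30 min for 14 h at 37 °C, background-subtracted against the first reading, from 384-well plates inoculated at OD595 0.01 in TSB, LB Lennox or CY.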

S. aureus Newman [2] = assay: as above
Outline: as §1

S. aureus DSM 20231 [3] = assay: as above
Outline: as §1

S. pneumoniae D39V [4] = assay: as above
Outline: as §1

B. subtilis 168 [5] = assay: Bliss interaction score (quartile over a dose matrix) (fitness difference); higher = more antagonism (negative = synergy)
Outline: (§2)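 Growth was read as OD595 when cultures entered stationary phase, and each value was divided by the plate's robust no-drug mean and capped at 1. This normalised ratio is the fitness value, and fitness for each single drug came from the combination data. The Bliss score subtracts the expected fitness, taken as the product, from the observed fitness and is given as quartiles across technical, biological and donor/recipient replicates.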

S. aureus Newman [6] = assay: as above
Outline: as §2

S. aureus DSM 20231 [7] = assay: as above
Outline: as §2

S. pneumoniae D39V [8] = assay: as above
Outline: as §2
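For Bliss interaction score (quartile over a dose matrix) in this document: first quartile when negative (synergy) and third quartile when positive (antagonism).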
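For fitness (endpoint OD595 vs no drug) in this document: OD595 on entry to stationary phase over no-drug wells; at most 1.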

COc1c(N2C[C@@H]3CCCN[C@@H]3C2)c(F)cc2c(=O)c(C(=O)O)cn(C3CC3)c12 [Moxifloxacin] + Cc1onc(-c2ccccc2)c1C(=O)N[C@@H]1C(=O)N2[C@@H]1SC(C)(C)[C@@H]2C(=O)O [Oxacillin]
Settings | fitness
B. subtilis 168 [1], first compound 0.0312 µg/mL, partner 0.0078 µg/mL | 0.064
B. subtilis 168 [1], first compound 0.0312 µg/mL, partner 0.0155 µg/mL | 0.0573
B. subtilis 168 [1], first compound 0.0312 µg/mL, partner 0.031 µg/mL | 0.0475
B. subtilis 168 [1], first compound 0.0625 µg/mL, partner 0.0078 µg/mL | 0.0466
B. subtilis 168 [1], first compound 0.0625 µg/mL, partner 0.0155 µg/mL | 0.037
B. subtilis 168 [1], first compound 0.0625 µg/mL, partner 0.031 µg/mL | 0.0491
B. subtilis 168 [1], first compound 0.125 µg/mL, partner 0.0078 µg/mL | 0.0548
B. subtilis 168 [1], first compound 0.125 µg/mL, partner 0.0155 µg/mL | 0.0482
B. subtilis 168 [1], first compound 0.125 µg/mL, partner 0.031 µg/mL | 0.0479
B. subtilis 168 [1], first compound 2 µg/mL, partner 0.002 µg/mL | 0.0356
B. subtilis 168 [1], first compound 2 µg/mL, partner 0.004 µg/mL | 0.0464
B. subtilis 168 [1], first compound 2 µg/mL, partner 0.008 µg/mL | 0.0465
B. subtilis 168 [1], first compound 4 µg/mL, partner 0.002 µg/mL | 0.0347
B. subtilis 168 [1], first compound 4 µg/mL, partner 0.004 µg/mL | 0.0433
B. subtilis 168 [1], first compound 4 µg/mL, partner 0.008 µg/mL | 0.0406
B. subtilis 168 [1], first compound 8 µg/mL, partner 0.002 µg/mL | 0.0147
B. subtilis 168 [1], first compound 8 µg/mL, partner 0.004 µg/mL | 0.021
B. subtilis 168 [1], first compound 8 µg/mL, partner 0.008 µg/mL | 0.0219
S. aureus DSM 20231 [3], first compound 0.0075 µg/mL, partner 0.0156 µg/mL | 0.665
S. aureus DSM 20231 [3], first compound 0.0075 µg/mL, partner 0.0312 µg/mL | 0.623
S. aureus DSM 20231 [3], first compound 0.0075 µg/mL, partner 0.0625 µg/mL | 0.483
S. aureus DSM 20231 [3], first compound 0.015 µg/mL, partner 0.0156 µg/mL | 0.621
S. aureus DSM 20231 [3], first compound 0.015 µg/mL, partner 0.0312 µg/mL | 0.576
S. aureus DSM 20231 [3], first compound 0.015 µg/mL, partner 0.0625 µg/mL | 0.475
S. aureus DSM 20231 [3], first compound 0.03 µg/mL, partner 0.0156 µg/mL | 0.561
S. aureus DSM 20231 [3], first compound 0.03 µg/mL, partner 0.0312 µg/mL | 0.527
S. aureus DSM 20231 [3], first compound 0.03 µg/mL, partner 0.0625 µg/mL | 0.417
S. aureus Newman [2], first compound 0.0075 µg/mL, partner 0.0156 µg/mL | 0.676
S. aureus Newman [2], first compound 0.0075 µg/mL, partner 0.0312 µg/mL | 0.633
S. aureus Newman [2], first compound 0.0075 µg/mL, partner 0.0625 µg/mL | 0.515
S. aureus Newman [2], first compound 0.015 µg/mL, partner 0.0156 µg/mL | 0.575
S. aureus Newman [2], first compound 0.015 µg/mL, partner 0.0312 µg/mL | 0.487
S. aureus Newman [2], first compound 0.015 µg/mL, partner 0.0625 µg/mL | 0.417
S. aureus Newman [2], first compound 0.03 µg/mL, partner 0.0156 µg/mL | 0.116
S. aureus Newman [2], first compound 0.03 µg/mL, partner 0.0312 µg/mL | 0.0437
S. aureus Newman [2], first compound 0.03 µg/mL, partner 0.0625 µg/mL | 0.0665
S. pneumoniae D39V [4], first compound 0.0037 µg/mL, partner 0.01 µg/mL | 0.885
S. pneumoniae D39V [4], first compound 0.0037 µg/mL, partner 0.02 µg/mL | 0.769
S. pneumoniae D39V [4], first compound 0.0037 µg/mL, partner 0.04 µg/mL | 0.191
S. pneumoniae D39V [4], first compound 0.005 µg/mL, partner 0.01 µg/mL | 0.991
S. pneumoniae D39V [4], first compound 0.005 µg/mL, partner 0.02 µg/mL | 1
S. pneumoniae D39V [4], first compound 0.0075 µg/mL, partner 0.01 µg/mL | 0.9
S. pneumoniae D39V [4], first compound 0.0075 µg/mL, partner 0.02 µg/mL | 0.784
S. pneumoniae D39V [4], first compound 0.0075 µg/mL, partner 0.04 µg/mL | 0.198
S. pneumoniae D39V [4], first compound 0.01 µg/mL, partner 0.01 µg/mL | 0.993
S. pneumoniae D39V [4], first compound 0.01 µg/mL, partner 0.02 µg/mL | 0.983
S. pneumoniae D39V [4], first compound 0.015 µg/mL, partner 0.01 µg/mL | 0.84
S. pneumoniae D39V [4], first compound 0.015 µg/mL, partner 0.02 µg/mL | 0.814
S. pneumoniae D39V [4], first compound 0.015 µg/mL, partner 0.04 µg/mL | 0.276
S. pneumoniae D39V [4], first compound 0.02 µg/mL, partner 0.01 µg/mL | 0.993
S. pneumoniae D39V [4], first compound 0.02 µg/mL, partner 0.02 µg/mL | 0.978

fitness, one replicate
Settings | partner 0.0156 µg/mL | partner 0.0312 µg/mL | partner 0.0625 µg/mL | partner 0.075 µg/mL | partner 0.15 µg/mL | partner 0.3 µg/mL
B. subtilis 168 [1], first compound 0.0312 µg/mL | – | – | – | 0.0346 | 0.0314 | 0.0247
B. subtilis 168 [1], first compound 0.0625 µg/mL | – | – | – | 0.0324 | 0.0252 | 0.0441
B. subtilis 168 [1], first compound 0.125 µg/mL | – | – | – | 0.0269 | 0.0127 | 0.018
S. aureus DSM 20231 [3], first compound 0.06 µg/mL | 0.628 | 0.559 | 0.524 | – | – | –
S. aureus DSM 20231 [3], first compound 0.12 µg/mL | 0.441 | 0.379 | 0.37 | – | – | –

Settings | Bliss interaction score
B. subtilis 168 [5] | 0.0214
S. aureus DSM 20231 [7] | 0.0441
S. aureus Newman [6] | -0.0642
S. pneumoniae D39V [8] | 0.0911

CCC[C@@H]1C[C@@H](C(=O)N[C@@H]([C@H]2O[C@H](SC)[C@H](O)[C@@H](O)[C@H]2O)[C@H](C)Cl)N(C)C1 [Clindamycin] + COc1cccc2c1C(=O)c1c(O)c3c(c(O)c1C2=O)C[C@@](O)(C(=O)CO)C[C@@H]3O[C@H]1C[C@H](N)[C@H](O)[C@H](C)O1 [Doxorubicin]
fitness, B. subtilis 168 [1], one replicate
Settings | first compound 0.0039 µg/mL | first compound 0.0078 µg/mL | first compound 0.0156 µg/mL
partner 0.625 µg/mL | 0.952 | 0.832 | 0.818
partner 1.25 µg/mL | ≥ 1 | 0.858 | 0.793
partner 2.5 µg/mL | ≥ 1 | 0.851 | 0.852

fitness
Settings | partner 0.25 µg/mL | partner 0.5 µg/mL | partner 0.625 µg/mL | partner 1 µg/mL | partner 1.25 µg/mL | partner 2.5 µg/mL
B. subtilis 168 [1], first compound 0.0625 µg/mL | – | – | 0.496 | – | 0.482 | 0.394
B. subtilis 168 [1], first compound 0.125 µg/mL | – | – | 0.363 | – | 0.408 | 0.3
B. subtilis 168 [1], first compound 0.25 µg/mL | – | – | 0.347 | – | 0.364 | 0.214
S. aureus DSM 20231 [3], first compound 0.125 µg/mL | – | – | 0.0581 | – | 0.0433 | 0.0502
S. aureus Newman [2], first compound 0.0312 µg/mL | – | – | 0.641 | – | 0.684 | 0.666
S. aureus Newman [2], first compound 0.125 µg/mL | – | – | 0.202 | – | 0.204 | 0.136
S. pneumoniae D39V [4], first compound 0.0125 µg/mL | 0.671 | 0.697 | – | 0.759 | – | –
S. pneumoniae D39V [4], first compound 0.015 µg/mL | 0.751 | 0.746 | – | 0.649 | – | –
S. pneumoniae D39V [4], first compound 0.025 µg/mL | 0.41 | 0.375 | – | 0.439 | – | –
S. pneumoniae D39V [4], first compound 0.03 µg/mL | 0.588 | 0.576 | – | 0.495 | – | –
S. pneumoniae D39V [4], first compound 0.05 µg/mL | 0.115 | 0.104 | – | 0.131 | – | –
S. pneumoniae D39V [4], first compound 0.06 µg/mL | 0.299 | 0.288 | – | 0.256 | – | –

Settings | Bliss interaction score
B. subtilis 168 [5] | 0.0474
S. aureus DSM 20231 [7] | 0.075
S. aureus Newman [6] | 0.168
S. pneumoniae D39V [8] | -0.0723
